Measured values reported in ChEMBL document CHEMBL1201862, “PubChem BioAssay data set” (2004).
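Protocol summary: plate cells (96-well), add compound at 5 concentrations, incubate 48 h, interpolate endpoints linearly. Here, GI50 denotes the concentration required for 50% inhibition of growth.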 Calls of active or inactive are those of the source. No stated cut-off is given here; in the data, active = GI50 up to about 1.1 µM and inactive = higher.

How the values were obtained:
Assay in all cases: growth of human tumour cells (NCI), 48 h
SF-295 = system: SF-295
UO-31 = system: UO-31
HT-29 = system: HT-29
OVCAR-4 = system: OVCAR-4
SK-OV-3 = system: SK-OV-3
MCF7 = system: MCF7
Malme-3M = system: Malme-3M
SN12C = system: SN12C
NCI-H226 = system: NCI-H226
HL-60 = system: HL-60
IGROV-1 = system: IGROV-1
HCC 2998 = system: HCC 2998
PC-3 = system: PC-3
A549 = system: A549
U-251 = system: U-251
OVCAR-5 = system: OVCAR-5
786-0 = system: 786-0
SK-MEL-5 = system: SK-MEL-5
UACC-257 = system: UACC-257
COLO 205 = system: COLO 205

Measured: GI50

N#CCOc1ccc(/C=C/C(=O)c2ccc(Cl)cc2)cc1
inactive: SF-295 21.4 µM | UO-31 32.8 µM | HT-29 50.6 µM | OVCAR-4 34.9 µM | SK-OV-3 18.4 µM | MCF7 11.4 µM | Malme-3M 28 µM | SN12C 39.8 µM | NCI-H226 > 100 µM | HL-60 28.5 µM | IGROV-1 22 µM | HCC 2998 31.7 µM | PC-3 43.2 µM | A549 39.7 µM | U-251 25.8 µM | OVCAR-5 > 100 µM | 786-0 22.6 µM | SK-MEL-5 20.9 µM | UACC-257 32 µM

Nc1cnc(Nc2cccc3ccccc23)o1
inactive: SF-295 > 10 µM | UO-31 > 10 µM | COLO 205 > 10 µM | HT-29 > 10 µM | OVCAR-4 > 10 µM | SK-OV-3 > 10 µM | MCF7 > 10 µM | Malme-3M > 10 µM | SN12C > 10 µM | NCI-H226 > 10 µM | HL-60 > 10 µM | IGROV-1 > 10 µM | HCC 2998 > 10 µM | PC-3 > 10 µM | A549 > 10 µM | U-251 > 10 µM | 786-0 > 10 µM | SK-MEL-5 > 10 µM | UACC-257 > 10 µM

O=c1c2nc[nH]c2n(-c2ccccc2)c(=S)n1-c1ccccc1
inactive: SF-295 > 100 µM | UO-31 > 100 µM | COLO 205 > 100 µM | HT-29 > 100 µM | OVCAR-4 > 100 µM | SK-OV-3 > 100 µM | MCF7 > 100 µM | SN12C > 100 µM | NCI-H226 > 100 µM | HL-60 > 100 µM | IGROV-1 > 100 µM | HCC 2998 > 100 µM | PC-3 > 100 µM | A549 > 100 µM | U-251 > 100 µM | OVCAR-5 > 100 µM | 786-0 > 100 µM | SK-MEL-5 > 100 µM | UACC-257 > 100 µM

CN(C)c1ccc(-c2ccc(N(C)C)c3n[se]nc23)c2n[se]nc12
inactive: SF-295 > 100 µM | UO-31 > 100 µM | HT-29 > 100 µM | OVCAR-4 > 100 µM | SK-OV-3 > 100 µM | MCF7 > 100 µM | Malme-3M > 100 µM | SN12C > 100 µM | NCI-H226 > 100 µM | HL-60 > 100 µM | IGROV-1 > 100 µM | HCC 2998 > 100 µM | PC-3 > 100 µM | A549 > 100 µM | U-251 > 100 µM | OVCAR-5 > 100 µM | 786-0 > 100 µM | SK-MEL-5 > 100 µM | UACC-257 > 100 µM

COc1cccc(OC)c1NC(=O)C(=O)Nn1c(NNC(=O)c2ccncc2)nc2ccccc2c1=O
inactive: SF-295 > 100 µM | UO-31 > 100 µM | HT-29 > 100 µM | OVCAR-4 > 100 µM | SK-OV-3 > 100 µM | MCF7 > 100 µM | Malme-3M > 100 µM | SN12C > 100 µM | NCI-H226 > 100 µM | HL-60 > 100 µM | IGROV-1 > 100 µM | HCC 2998 > 100 µM | PC-3 > 100 µM | A549 > 100 µM | U-251 > 100 µM | OVCAR-5 > 100 µM | 786-0 > 100 µM | SK-MEL-5 > 100 µM | UACC-257 > 100 µM
